We go through nine compounds from paper PMC6736568, “Discovery of Novel Anti-cryptosporidial Activities From Natural Products by in vitro High-Throughput Phenotypic Screening” (Frontiers in Microbiology, 2019).

The test system of one series is HCT-8 cells. As to the kind of experiment: In vitro cytotoxicity MTS assay on host cells. To be noted: 41 h. Format: cell-based, human. The procedure:
The plates were measured for absorbance at 490 nm in 15 min intervals in a SmartReader 96 microplate reader (Accuris, Edison, NJ, United States). Cytotoxicity of a compound was quantified by calculating the half maximal toxic concentration on host cells (TC50). An in vitro safety interval (SI) was calculated by determining the ratio between TC50 and EC50 values (i.e., SI = TC50/EC50).

For series [1], the system named is Cryptosporidium parvum. The series is described as follows: qRT-PCR assay of the growth of C. parvum in vitro in HCT-8 host cells (primary and secondary screening, EC50). The series is classed as cell-based. To be noted: Cryptosporidium parvum; for inhibition at 10 µM / inhibition at 3.3 µM: HCT-8; for inhibition at 10 µM: primary screening at 10 uM, read-out: Inhibition (%); for inhibition at 3.3 µM: secondary screening at 3.3 uM, read-out: % Inhibition (3.3 uM); for EC50: growth of C. parvum in vitro, HCT-8 host cells, 44 h infection. On the technique in general: Quantitative PCR measures a nucleic acid by following its amplification.

A further series can be described thus: in vitro. As to conditions: for cytotoxicity at 41 h, 10 µM: human.
The subject of series [2] is cryptosporidial infection. On the set-up: method as in Lemeteil et al., 1993. As to conditions: ref Lemeteil et al., 1993; cited from earlier work.
The subject of series [3] is Cryptosporidium parvum. As to the kind of experiment: Drug withdrawal assay (qRT-PCR at 44 hpi). The series is classed as cell-based. As to conditions: assayed at 44 hpi, cedrelone 1.0 μM, Deox B 7,4 2.0 μM, baicalein 3.3 μM, PRM 150 μM. How it is done: For drug withdrawal assay, HCT-8 cells were cultured and inoculated with C. parvum oocysts (50,000 oocysts/well) for 3 h. After a medium exchange, individual compounds at EC80 final concentrations were added into wells. Compounds were removed at 22 hpi time point by a medium exchange, and infected cells were allowed to grow up to 44 hpi (3–22 hpi treatment groups). A full course of treatment for each compound was included as control (3–44 hpi treatment groups). Cell lysates were prepared at 44 hpi time point for qRT-PCR.
(§1) In all experiments, negative controls were treated with diluent (0.5% DMSO) for the same durations of corresponding drug treatment groups. All experiments include least three biological replicates for each compound in the in vitro drug treatment assay and two technical replicates for each biological replicate in the qRT-PCR assay.

Series [4] has as its system Cryptosporidium parvum. The series is described as follows: Effect on different parasite developmental stages in vitro (qRT-PCR). To be noted: cedrelone 1.0 μM, Deox B 7,4 2.0 μM, baicalein 3.3 μM, PRM 150 μM. The series is classed as cell-based. How it is done: We selected three top hits derived from plants for evaluating their activity against various developmental stages of C. parvum. For evaluating the effect on the parasite invasion (i.e., 0–3 hpi treatment groups), host cell monolayers will be incubated with C. parvum oocysts (10^5 oocysts/well) in 96-well plates together with individual compounds at around EC80 concentrations. For evaluating the effect on various stages of intracellular parasites (i.e., 3–10 hpi, […], 22–44 hpi, and 3–44 hpi treatment groups), host cell monolayers were incubated with C. parvum oocysts (50,000 oocysts/well) for 3 h, followed by the removal of uninvaded parasites by a medium exchange. These time points roughly corresponded to the invasion into host cells (0–3 hpi), the development of first and some second generation of merogony (3–22 hpi) or second generation of merogony and gametogenesis (22–44 hpi). Individual compounds at EC80 final concentrations were added into wells at specified post-infection time points, and plates were incubated for specified durations of post-infection times. Cell lysates were prepared at the end of each treatment for qRT-PCR.
as §1

The conditions of series [5]: mouse, ip; ref MicroSource NatProd Collection note; cited from earlier work.
[6] abbreviates: primary screening at 10 uM, treated vs control.

Structures are written as SMILES. Where two headings read alike, the source gives them in different places. Bounds are passed on as bounds.

As a reminder, the inhibition is the drop in the measured response relative to a control, in per cent. Broadly, the EC50 is the concentration needed to bring the measured effect to its halfway point. Low values mean a more potent agent, high ones a less potent agent. As to `COc1cccc2c1C(=O)c1c(O)c3c(c(O)c1C2=O)C[C@@](O)(C(C)=O)C[C@@H]3O[C@H]1C[C@H](N)[C@H](O)[C@H](C)O1` [Daunorubicin, reference compound], in the series on HCT-8 cells (human), the TC50 is 42.6 µM. Besides, in the series on Cryptosporidium parvum [1], the inhibition at 10 µM came out at 76.8%; the inhibition at 3.3 µM amounted to 71%; the midpoint of the response, the EC50, lay at 1.49 µM. The cytotoxicity at 41 h, 10 µM in “in vitro” is 49.5%. In series [2], the “efficacy on cryptosporidial infection in rats” value is given as “ineffective”. For the same compound, the “Hs18S ΔCT” value with HCT-8 host cells (Hs18S) (human, 41 h, 10 μM) was found to be 0.99.
As to `COc1ccc2c(c1)OC[C@H](Cc1ccc(OC)c(O)c1)C2=O` [Deoxysappanone B 7,4′-dimethyl ether], the TC50 in the series on HCT-8 cells (HCT-8 cells, MTS) was 64.9 µM. Besides, the inhibition at 2 µM with Cryptosporidium parvum [3] (full course 3-44 hpi, read-out: 3-44 hpi Inhibition) was 73.8%; in the series on Cryptosporidium parvum [3] (treated 3-22 hpi, compound removed, read-out: 3-22 hpi Inhibition), 61.9%; in the series with Cryptosporidium parvum [4] (treatment 0-3 hpi (excystation and invasion)), -5.5 ± 7.2%; in the series with Cryptosporidium parvum [4] (treatment 3-10 hpi), 9.1 ± 10.4%; in the series with Cryptosporidium parvum [4] (treatment 3-22 hpi, assayed at end of treatment) it was 18%; with Cryptosporidium parvum [4] (treatment 3-44 hpi (full course)), 67.2%. Besides, in the series on Cryptosporidium parvum [4] (treatment 22-44 hpi), the inhibition at 2 µM amounted to 22.9 ± 6.8%. In addition, the inhibition at 10 µM with Cryptosporidium parvum [1] worked out at 91.3%. The inhibition at 3.3 µM with Cryptosporidium parvum [1] worked out at 52%. In the series on Cryptosporidium parvum [1], this compound had an EC50 of 0.734 µM. Besides, the cytotoxicity at 41 h, 10 µM in “in vitro” came to 35.1%. The “Hs18S ΔCT” value in the series with HCT-8 host cells (Hs18S) (human, 41 h, 10 μM) came to 0.62.
The compound `CC(C)=CCCC1(C)C=Cc2c(O)c3c(c(CC=C(C)C)c2O1)OC12C(=CC4CC1C(C)(C)OC2(C/C=C(/C)C(=O)O)C4O)C3=O` (stereo not drawn) [Dihydrogambogic acid] came in with a TC50 in the series on HCT-8 cells (human) of 6.31 µM. Besides, in the series with Cryptosporidium parvum [1], the inhibition at 10 µM was 97.7%, the inhibition at 3.3 µM worked out at 57% and the EC50 was found to be 1.67 µM. For the same compound, the cytotoxicity at 10 µM in the series “in vitro” is -52%. Further, the “Hs18S ΔCT” value in the series with HCT-8 host cells (Hs18S) (setting [6]) was -0.60.
The compound `Cc1cccc2c3c(ccc12)C1=C(C(=O)C3=O)[C@@H](C)CO1` [Dihydrotanshinone I] had a TC50 with HCT-8 cells (human) of 25.0 µM. In the series with Cryptosporidium parvum [1], the inhibition at 10 µM was found to be 87%, the inhibition at 3.3 µM worked out at 75% and a half-maximal response (EC50) required 3.08 µM. Besides, in “in vitro”, the cytotoxicity at 41 h, 10 µM stood at 0.2%. The “Hs18S ΔCT” value with HCT-8 host cells (Hs18S) (human, 41 h, 10 μM) was found to be 0.00.
`CC[C@H](C)C(=O)O[C@H]1C[C@@H](C)C=C2C=C[C@H](C)[C@H](CC[C@@H]3C[C@@H](O)CC(=O)O3)[C@H]21` [Lovastatin, reference compound] had a TC50 with HCT-8 cells (HCT-8 cells, MTS) greater than 100 µM. Also, in the series with Cryptosporidium parvum [1], the inhibition at 10 µM amounted to 85.8%, the inhibition at 3.3 µM came to 58% and the response was half-maximal at 2.41 µM (EC50). Further, the cytotoxicity at 41 h, 10 µM in the series “in vitro” came to 34.1%. Moreover, the “Hs18S ΔCT” value with HCT-8 host cells (Hs18S) (human, 41 h, 10 μM) is 0.60.
`CO[C@@]12[C@H](COC(N)=O)C3=C(C(=O)C(C)=C(N)C3=O)N1C[C@@H]1N[C@@H]12` [Mitomycin, reference compound] had a TC50 in the series with HCT-8 cells (HCT-8 cells, MTS) of 13.1 µM. In addition, in the series on Cryptosporidium parvum [1], the inhibition at 10 µM was found to be 93.7%, the inhibition at 3.3 µM is 78% and the response was half-maximal at 0.133 µM (EC50). Further, the cytotoxicity at 10 µM in the series “in vitro” was determined as 60.5%. For the same compound, the “Hs18S ΔCT” value with HCT-8 host cells (Hs18S) was determined as 1.34.
For orientation: LD50 means the dose at which mortality reaches 50%. On to `COC1=C[C@@H]2[C@@H]3Cc4ccc(OC)c(O)c4[C@]2(CCN3C)CC1=O` [SINOMENINE], for which the LD50 in series [5] was 285 mg/kg. Also, in the series with Cryptosporidium parvum [1], the inhibition at 10 µM was -83.5%. Further, the cytotoxicity at 10 µM in “in vitro” is -71.8%. The “Hs18S ΔCT” value in the series with HCT-8 host cells (Hs18S) (setting [6]) is -0.78.
On to `Cc1coc2c1C(=O)C(=O)c1c-2ccc2c1CCCC2(C)C` [Tanshinone IIA], for which the TC50 in the series on HCT-8 cells (HCT-8 cells, MTS) was greater than 100 µM. Also, in the series on Cryptosporidium parvum [1], the inhibition at 10 µM was 82.7%, the inhibition at 3.3 µM worked out at 63% and the half-maximal effective concentration (EC50) was 0.964 µM. In addition, the cytotoxicity at 10 µM in “in vitro” is 5.6%. The “Hs18S ΔCT” value with HCT-8 host cells (Hs18S) (setting [6]) was found to be 0.08.
In the case of `CC(C)[C@@H]1NC(=O)[C@H](C)OC(=O)[C@@H](C(C)C)NC(=O)[C@@H](C(C)C)OC(=O)[C@H](C(C)C)NC(=O)[C@H](C)OC(=O)[C@@H](C(C)C)NC(=O)[C@@H](C(C)C)OC(=O)[C@H](C(C)C)NC(=O)[C@H](C)OC(=O)[C@@H](C(C)C)NC(=O)[C@@H](C(C)C)OC1=O` [Valinomycin, reference compound], the TC50 with HCT-8 cells (HCT-8 cells, MTS) was greater than 50 µM. Moreover, in the series with Cryptosporidium parvum [1], the inhibition at 10 µM amounted to 92.3%, the inhibition at 3.3 µM was 87% and the EC50 is 0.122 µM. Further, the cytotoxicity at 10 µM in the series “in vitro” is -9.2%. Moreover, the “Hs18S ΔCT” value in the series with HCT-8 host cells (Hs18S) (setting [6]) is on record as -0.13.
